The text below walks through data of patent US8501755B2, “Tetrahydropyridothienopyrimidine compounds and methods of use thereof” (Bayer Intellectual Property GmbH, priority 2006, dated 2013).

Common to all, as to type: cell-based
The test system of one test is A431 cells. The experiment in a line: In vitro tumor cell proliferation assay (Cell Titer-Glo) in A431 cells. To be noted: Homo sapiens, A-431, 72 h, A431 human epidermoid carcinoma overexpressing HER1; 72 hours exposure; read-out: IC50, activities in A431 cell lines. The source says: (§1) The tumor cell proliferation assay used to test the compounds of the present invention involves a readout called Cell Titer-Glow® Luminescent Cell Viability Assay developed by Promega® (Cunningham, BA “A Growing Issue: Cell Proliferation Assays, Modern kits ease quantification of cell growth” The Scientist 2001, 15(13), 26, and Crouch, S P et al., “The use of ATP bioluminescence as a measure of cell proliferation and cytotoxicity” Journal of Immunological Methods 1993, 160, 81-88), that measures inhibition of cell proliferation. Generation of a luminescent signal corresponds to the amount of ATP present, which is directly proportional to the number of metabolically active (proliferating) cells. A431 cells [human epidermoid carcinoma, ATCC # HTB-20, overexpressing HER1 (EGFR, ErbB1)] and N87 [human gastric carcinoma, ATCC # CRL-1555, overexpressing HER2 (ErbB2) and HER1 (EGFR, ErbB1)] were plated at a density of 2.5×10^3 cells/well in 96 well black-clear bottom tissue culture plates in RPMI media with 10% Fetal Bovine Serum and incubated at 37° C. Twenty-four hours later, test compounds are added at a final concentration range from as high 100 μm to as low […] depend on the activities of the tested compounds in serial dilutions at a final DMSO concentration of 0.1%. Cells were incubated for 72 hours at 37° C. in complete growth media after addition of the test compound. After 72 hours of drug exposure, the plates were equilibrated to room temperature for approximately 30 min. Then, using a Promega Cell Titer Glo Luminescent® assay kit, lysis buffer containing 100 microliters of the enzyme luciferase and its substrate, luciferin mixture, was added to each well. The plates were mixed for 2 min on orbital shaker to ensure cell lysis and incubated for 10 min at room temperature to stabilize luminescence signal. The samples were read on VICTOR2 using Luminescence protocol, and analyzed with Analyze5 software to generate IC50 values.

Another test has as its system N87. In words: In vitro tumor cell proliferation assay (Cell Titer-Glo) in N87 cells. The settings on record: N87 human gastric carcinoma overexpressing HER2 and HER1; 72 hours exposure; read-out: IC50, activities in N87 cell lines.
Source text: as §1

In a further test the test system is H1975 cells. The experiment in a line: In vitro tumor cell proliferation assay (Cell Titer-Glo) in H1975 cells. The settings on record: NCI-H1975; H1975 human NSCLC expressing mutant HER1 (L858R,T790M); 72 hours exposure; read-out: IC50, activities in H 1975 cell lines. The source says:
The tumor cell proliferation assay used to test the compounds of the present invention involves a readout called Cell Titer-Glow® Luminescent Cell Viability Assay developed by Promega® (Cunningham, BA “A Growing Issue: Cell Proliferation Assays, Modern kits ease quantification of cell growth” The Scientist 2001, 15(13), 26, and Crouch, S P et al., “The use of ATP bioluminescence as a measure of cell proliferation and cytotoxicity” Journal of Immunological Methods 1993, 160, 81-88), that measures inhibition of cell proliferation. Generation of a luminescent signal corresponds to the amount of ATP present, which is directly proportional to the number of metabolically active (proliferating) cells.
H1975 cells [human non small cell lung carcinoma, ATCC # CRL-5908, expressing mutant HER1 [(EGFR, ErbB1)(L858R,T790M] were plated at a density of 3×10^3 cells/well in 96 well black-clear bottom tissue culture plates in RPMI media with 10% Fetal Bovine Serum and incubated at 37° C. Twenty-four hours later, test compounds are added at a final concentration range from as high 10 uM to as low 64 pM depending on the activities of the tested compounds in serial dilutions at a final DMSO concentration of 0.1%. Cells were incubated for 72 hours at 37° C. in complete growth media after addition of the test compound. After 72 hours of drug exposure, the plates were equilibrated to room temperature for approximately 30 min. Then, using a Promega Cell Titer Glo Luminescent® assay kit, lysis buffer containing 100 microliters of the enzyme luciferase and its substrate, luciferin mixture, was added to each well. The plates were mixed for 2 min on orbital shaker to ensure cell lysis and incubated for 10 min at room temperature to stabilize luminescence signal. The samples were read on VICTOR2 using Luminescence protocol, and analyzed with Analyze5 software to generate IC50 values.

Bounds are passed on as bounds.

In the case of `CN1CCC=C(C(=O)N2CCc3c(sc4ncnc(Nc5ccc(F)c(Cl)c5)c34)C2)C1` [Example 29, N-(3-chloro-4-fluorophenyl)-7-[(1-methyl-1,2,5,6-tetrahydropyridin-3-yl)carbonyl]5,6,7,8-tetrahydropyrido [4′,3′:4,5]thieno[2,3-d]pyrimidin-4-amine], the IC50 in the test with A431 cells lay in the range of 1000 to 10000 nM; with N87, 200 to 5000 nM; in the test with H1975 cells, 1000 to 10000 nM.

Consider `CN1CCC=C(C(=O)N2CCc3c(sc4ncnc(Nc5ccc(OCc6ccccn6)c(Cl)c5)c34)C2)C1` [Example 30, N-[3-chloro-4-(pyridin-2-ylmethoxy)phenyl]-7-[(1-methyl-1,2,5,6-tetrahydropyridin-3-yl)carbonyl]-5,6,7,8-tetrahydropyrido [4′,3′:4,5]thieno[2,3-d]pyrimidin-4-amine], for which the IC50 was in the range of 1000 to 10000 nM in the test on A431 cells, 200 to 5000 nM in the test on N87 and 1000 to 10000 nM with H1975 cells.

For the molecule `C#Cc1cccc(Nc2ncnc3sc4c(c23)CCN(C(=O)C2=CCCN(C)C2)C4)c1` [Example 31, N-(3-ethynylphenyl)-7-[(1-methyl-1,2,5,6-tetrahydropyridin-3-yl)carbonyl]-5,6,7,8-tetrahydropyrido [4′,3′:4,5]thieno[2,3-d]pyrimidin-4-amine], the results for the IC50 in the test with A431 cells, with N87 and in the test on H1975 cells were 1000 to 10000 nM, 200 to 5000 nM and 1000 to 10000 nM, respectively.

Consider `O=C(/C=C/CN(CCO)CCO)N1CCc2c(sc3ncnc(Nc4ccc(F)c(Cl)c4)c23)C1` [Example 32, 2,2′-{[(2E)-4-{4-[(3-chloro-4-fluorophenyl)amino]-5,8-dihydropyrido [4′,3′:4,5]thieno[2,3-d]pyrimidin-7(6H)-yl}-4-oxobut-2-en-1-yl]imino}diethanol], for which the IC50 was 1000 to 10000 nM in the test with A431 cells, less than 200 nM in the test on N87 and 1000 to 10000 nM with H1975 cells.

`O=C(/C=C/CN1CCSC1)N1CCc2c(sc3ncnc(Nc4ccc(F)c(Cl)c4)c23)C1` [Example 35, N-(3-chloro-4-fluorophenyl)-7-[(2E)-4-(1,3-thiazolidin-3-yl)but-2-enoyl]-5,6,7,8-tetrahydropyrido [4′3′:4,5]thieno[2,3-d]pyrimidin-4-amine]: the values for the IC50 in the test on A431 cells, with N87 and in the test with H1975 cells were 1000 to 10000 nM, 200 to 5000 nM and 1000 to 10000 nM, respectively.

With `CCN(C/C=C/C(=O)N1CCc2c(sc3ncnc(Nc4ccc(F)c(Cl)c4)c23)C1)C(C)C` [Example 37, N-(3-chloro-4-fluorophenyl)-7-{(2E)-4-[ethyl(isopropyl)amino]but-2-enoyl}-5,6,7,8-tetrahydropyrido [4′3′:4,5]thieno[2,3-d]pyrimidin-4-amine], the IC50 was 1000 to 10000 nM in the test on A431 cells, less than 200 nM with N87 and 1000 to 10000 nM in the test on H1975 cells.

For `O=C(/C=C/CN1CCc2ccccc21)N1CCc2c(sc3ncnc(Nc4ccc(F)c(Cl)c4)c23)C1` [Example 38, N-(3-chloro-4-fluorophenyl)-7-[(2E)-4-(2,3-dihydro-1H-indol-1-yl)but-2-enoyl]-5,6,7,8-tetrahydropyrido [4′3′:4,5]thieno[2,3-d]pyrimidin-4-amine], the IC50 lay in the range of 1000 to 10000 nM with A431 cells, 200 to 5000 nM with N87 and 1000 to 10000 nM in the test with H1975 cells.

As for `CC(O)CN(C/C=C/C(=O)N1CCc2c(sc3ncnc(Nc4ccc(F)c(Cl)c4)c23)C1)CC(C)O` (stereo not drawn) [Example 39, 1,1′-{[(2E)-4-{4-[(3-chloro-4-fluorophenyl)amino]-5,8-dihydropyrido [4′,3′:4,5]thieno[2,3-d]pyrimidin-7(6H)-yl}-4-oxobut-2-en-1-yl]imino}dipropan-2-ol], the IC50 with A431 cells is 1000 to 10000 nM; in the test with N87 it was less than 200 nM; with H1975 cells, 1000 to 10000 nM.

On to `CCN(C)C/C=C/C(=O)N1CCc2c(sc3ncnc(Nc4ccc(F)c(Cl)c4)c23)C1` [Example 40, N-(3-chloro-4-fluorophenyl)-7-{(2E)-4-[ethyl(methyl)amino]but-2-enoyl}-5,6,7,8-tetrahydropyrido [4′,3′:4,5]thieno[2,3-d]pyrimidin-4-amine], for which the IC50 in the test on A431 cells was 200 to 1000 nM; in the test on N87, less than 200 nM; in the test on H1975 cells, 200 to 1000 nM.

Turning to `CC1CN(C/C=C/C(=O)N2CCc3c(sc4ncnc(Nc5ccc(F)c(Cl)c5)c34)C2)CC(C)O1` (stereo not drawn) [Example 41], the IC50 was 200 to 1000 nM in the test on A431 cells, less than 200 nM with N87 and 1000 to 10000 nM with H1975 cells.

For the molecule `O=C(/C=C/CN1CCSCC1)N1CCc2c(sc3ncnc(Nc4ccc(F)c(Cl)c4)c23)C1` [Example 42, N-(3-chloro-4-fluorophenyl)-7-[(2E)-4-thiomorpholin-4-ylbut-2-enoyl]-5,6,7,8-tetrahydropyrido [4′,3′:4,5]thieno[2,3-d]pyrimidin-4-amine], the IC50 with A431 cells was 1000 to 10000 nM; in the test on N87 it was less than 200 nM; in the test with H1975 cells it was 1000 to 10000 nM.

For `O=C(/C=C/CN(CCO)CCO)N1CCc2c(sc3ncnc(Nc4ccc(OCc5ccccn5)c(Cl)c4)c23)C1` [Example 43, 2,2′-({(2E)-4-[4-{[3-chloro-4-(pyridin-2-ylmethoxy)phenyl]amino}-5,8-dihydropyrido [4′,3′:4,5]thieno[2,3-d]pyrimidin-7(6H)-yl]-4-oxobut-2-en-1-yl}imino)diethanol], the IC50 with A431 cells was 1000 to 10000 nM; in the test on N87, less than 200 nM; with H1975 cells, 1000 to 10000 nM.

Regarding `O=C(/C=C/CN1CCc2ccccc21)N1CCc2c(sc3ncnc(Nc4ccc(OCc5ccccn5)c(Cl)c4)c23)C1` [Example 44, N-[3-chloro-4-(pyridin-2-ylmethoxy)phenyl]-7-[(2E)-4-(2,3-dihydro-1H-indol-1-yl)but-2-enoyl]-5,6,7,8-tetrahydropyndo [4′,3′:4,5]thieno[2,3-d]pyrimidin-4-amine], the IC50 is 1000 to 10000 nM in the test on A431 cells, less than 200 nM in the test on N87 and 1000 to 10000 nM with H1975 cells.

For `O=C(/C=C/CN1CCC(N2CCCCC2)CC1)N1CCc2c(sc3ncnc(Nc4ccc(F)c(Cl)c4)c23)C1` [Example 45, 7-[(2E)-4-(1,4′-bipiperidin-1-yl)but-2-enoyl]-N-(3-chloro-4-fluorophenyl)-5,6,7,8-tetrahydropyrido [4′,3′:4,5]thieno[2,3-d]pyrimidin-4-amine], the IC50 with A431 cells was 1000 to 10000 nM; in the test on N87 it was less than 200 nM; with H1975 cells, 200 to 1000 nM.

Take `CC1CC(C)CN(C/C=C/C(=O)N2CCc3c(sc4ncnc(Nc5ccc(OCc6ccccn6)c(Cl)c5)c34)C2)C1` (stereo not drawn) [Example 46, N-[3-chloro-4-(pyridin-2-ylmethoxy)phenyl]-7-[(2E)-4-(3,5-dimethylpiperidin-1-yl)but-2-enoyl]-5,6,7,8-tetrahydropyrido [4′,3′:4,5]thieno[2,3-d]pyrimidin-4-amine]: the IC50 was 200 to 1000 nM in the test on A431 cells, less than 200 nM with N87 and 200 to 1000 nM with H1975 cells.

Turning to `O=C(/C=C/CN1CCCC(CO)C1)N1CCc2c(sc3ncnc(Nc4ccc(OCc5ccccn5)c(Cl)c4)c23)C1` (stereo not drawn) [Example 47, (1-{(2E)-4-[4-{[3-chloro-4-(pyridin-2-ylmethoxy)phenyl]amino}-5,8-dihydropyrido [4′,3′:4,5]thieno[2,3-d]pyrimidin-7(6H)-yl]-4-oxobut-2-en-1-yl}piperidin-3-yl)methanol], the IC50 was 200 to 1000 nM in the test with A431 cells, less than 200 nM in the test on N87 and 200 to 1000 nM in the test on H1975 cells.
